In paper PMC3293629 (Nature Communications, 2012):
Where two headings read alike, the source gives them in different places.

Legend:
[1] = tested on: Flu1-specific clone HA1.7; experiment: IFN-γ ELISpot, other Flu1-specific clones; type: cell-based, human; conditions: Fig. 1c, peptide titration, compared with Flu1
[2] = tested on: HA1.7, F11 and HA-C6 TCRs; experiment: SPR equilibrium binding of HA1.7, F11 and HA-C6 TCRs, combined; set-up: species or system human; conditions: Arg at P10 or P11
[3] = tested on: CD4^+ T cells binding the HLA-DR1/HA305−320 tetramer; type: cell-based, human
[4] = tested on: TRB clonotypes of tetramer-sorted CD4^+ T cells; type: cell-based, human
[5] = tested on: CD4^+ HLA-DR1/HA305−320 tetramer-positive cells; type: cell-based, human

Row | Sequence | responsiveness to altered peptides, other clones (in words) [1] | increase in TCR binding affinity [2] [fold] | tetramer-positive expansion, % of CD3^+ T cells ([3]; short-term T-cell line primed with peptide, HLA-DR1/HA305−320 tetramer) | Freq. of clonotype ([4]; TRBV 5–6, CDR3 […], TRBJ 1–2) [%] | Freq. of clonotype ([4]; TRBV 12–3/4, CDR3 […], TRBJ 1–5) [%] | clonotypic composition, repeat experiment versus first (in words) ([4]; same donor, Chi square 0.72, P=0.70, data not shown) | number of expanded CD4^+ HLA-DR1/HA305−320 tetramer-positive cells [5] | tetramer-positive expansion, % of CD3^+ T cells [3] | clonotypic composition, repeat experiment versus first (in words) [4]
1 | PKYVKQNTLKLAR [Flu3] | striking increase in responsiveness | > 2 | 28.7 % of CD3^+ T cells | 69.70 | 30.30 | no significant difference | – | – | –
2 | PKYVKQNTLKLAT [Flu1, reference compound] | – | – | – | – | – | – | ≥ 5×10^4 cells | 19.4 % of CD3^+ T cells | no significant difference
